Measured values: patent publication US20230044248A1, “COMBINED INHIBITION OF PD-1, TGFBeta AND ATM TOGETHER WITH RADIOTHERAPY FOR THE TREATMENT OF CANCER” (ARES TRADING S.A., priority 2019, published 2023)

Tests used:
4T1 cells [1] = test: Example 1: bintrafusp alfa, RT and Compound A in the 4T1 mammary tumor model; type: in vivo, BALB/c mice; details: mice sacrificed at tumor volume ≈2000 mm^3; Compound A 100 mg/kg p.o. day 0-10 where given
4T1 cells [2] = test: Example 2: dosing schedule of Compound A in the triple combination, 4T1 mammary tumor model; details: dual combination without Compound A
Description: BALB/c mice were inoculated intramuscularly (i.m.) with 0.5×10^5 4T1 cells (day −7) and treated (n=10 mice/group) with isotype control (400 μg i.v.; day 0, 2, 4)+vehicle control (0.2 mL, p.o., day 0-17), bintrafusp alfa (492 μg i.v.; day 0, 2, 4)+RT (8 Gy, day 0-3), or bintrafusp alfa+RT+Compound A (100 mg/kg, p.o, days 0-3, days 0-10, or day 0-17). Tumor volumes were measured twice weekly and presented as (A) mean±SEM or (B) individual tumor volumes. P-values were calculated by two-way RM ANOVA with Tukey's post-test. (C) For survival analysis, mice were sacrificed when tumor volumes reached ≈2000 mm^3 and median survival times were calculated.
The effect of different dosing schedules of Compound A on the antitumor activity of the triple combination therapy was evaluated in the 4T1 mammary tumor model. […]
(§1) Tumor volumes were calculated with the following formula: tumor volume (mm^3)=tumor length×width×height×0.5236. Tumor growth inhibition (TGI) was calculated with the following formula: TGI (%)=[1−(Ti−T0)/(Vi−V0)]×100, where Ti is the average tumor volume (mm^3) of a treatment group on a given day, TO is the average tumor volume of the treatment group on the first day of treatment, Vi is the average tumor volume of the vehicle control group on the same day as Ti, and V0 is the average tumor volume of the vehicle control group on the first day of treatment. […]

4T1 cells [3] = test: Example 3: triple combination versus dual and monotherapy controls, 4T1 mammary tumor model; details: day 18
Description: BALB/c mice were inoculated intramuscularly (i.m.) with 0.5×10^5 4T1 cells (day −7) and treated (n=10 mice/group) with isotype control (400 μg i.v.; day 0, 2, 4)+vehicle control (0.2 mL, p.o., day 0-4), bintrafusp alfa (492 μg i.v.; day 0, 2, 4)+vehicle control, RT (8 Gy, day 0-3)+isotype control+vehicle control, Compound A (100 mg/kg, p.o, days 0-4)+isotype control, bintrafusp alfa+RT, bintrafusp alfa+Compound A, RT+Compound A, or bintrafusp alfa+RT+Compound A. Tumor volumes were measured twice weekly and presented as (A) mean±SEM or (B) individual tumor volumes. P-values were calculated by two-way RM ANOVA with Tukey's post-test. (C) For survival analysis, mice were sacrificed when tumor volumes reached ≈2000 mm^3 and median survival times were calculated. […]
as §1

4T1 cells [4] = test: Example 4: triple combination with various RT doses versus bintrafusp alfa+RT, 4T1 mammary tumor model; details: RT 8Gy, QDx4
Description: Balb/c mice were inoculated with 4T1 cells (0.5×10^6) in the right thigh muscle (day −7). At day 0, when average tumor volumes reached 150 mm^3, mice were treated (n=10 mice/group) with isotype control (400 μg i.v.; Days 0, 2, 4), Bintrafusp alfa (492 μg/mouse i.v.; Days 0, 2, 4)+RT (8Gy, QDx4), or bintrafusp alfa+Compound A (100 mg/kg p.o., QDx4)+RT (8Gy or 6Gy or 4Gy or 2Gy, QDx4). Tumor volumes were measured twice weekly and presented as mean±SEM. P-values were calculated by two-way ANOVA with Sidack's or Tukey's post-test. P-values comparing median survival were calculated with the Log-rank (Mantel-Cox) test.
Treatment was initiated on day 0 when average tumor volume reached ˜150 mm^3. Mice were sacrificed when tumor volumes reached ˜2500 mm^3. […]
Tumor volumes were calculated with the following formula: tumor volume (mm^3)=tumor length×width×height×0.5236.
To compare the percentage survival between different treatment groups, Kaplan-Meier survival curves were generated. Body weight was measured twice weekly and mice were sacrificed when their tumor volume exceeded 2,000 mm^3.
Statistical analyses were performed using GraphPad Prism Software, version 8.0 or 8.0.1. […] A Kaplan-Meier plot was generated to show survival by treatment group and significance was assessed by log-rank (Mantel-Cox) test.

Substance: bintrafusp alfa and RT: dual combination therapy of bintrafusp alfa with radiotherapy (RT)
- median survival (4T1 cells [1]): 26 days
- median survival (4T1 cells [2]): 26 days
- antitumor activity of dual combination therapy relative to the respective monotherapies (4T1 cells [3]): enhanced antitumor activity
- median survival (4T1 cells [4]): 26 days
